According to ChEMBL document CHEMBL6121052, “Design of ROS-Triggered Sesquiterpene Lactone SC Prodrugs as TrxR1 Covalent Inhibitors for the Treatment of Non-Small Cell Lung Cancer” (J Med Chem, 2025):
The source made the active and inactive calls. No cut-off for these calls is given here.

Key:
[1] = target: T1, Thioredoxin reductase 1, cytoplasmic (Homo sapiens) (UniProt Q16881); assay: Inhibition of TrxR1 (unknown origin) using DTNB as substrate preincubated for 1.5 hrs by microplate reader analysis
T1 sequence (whole entry): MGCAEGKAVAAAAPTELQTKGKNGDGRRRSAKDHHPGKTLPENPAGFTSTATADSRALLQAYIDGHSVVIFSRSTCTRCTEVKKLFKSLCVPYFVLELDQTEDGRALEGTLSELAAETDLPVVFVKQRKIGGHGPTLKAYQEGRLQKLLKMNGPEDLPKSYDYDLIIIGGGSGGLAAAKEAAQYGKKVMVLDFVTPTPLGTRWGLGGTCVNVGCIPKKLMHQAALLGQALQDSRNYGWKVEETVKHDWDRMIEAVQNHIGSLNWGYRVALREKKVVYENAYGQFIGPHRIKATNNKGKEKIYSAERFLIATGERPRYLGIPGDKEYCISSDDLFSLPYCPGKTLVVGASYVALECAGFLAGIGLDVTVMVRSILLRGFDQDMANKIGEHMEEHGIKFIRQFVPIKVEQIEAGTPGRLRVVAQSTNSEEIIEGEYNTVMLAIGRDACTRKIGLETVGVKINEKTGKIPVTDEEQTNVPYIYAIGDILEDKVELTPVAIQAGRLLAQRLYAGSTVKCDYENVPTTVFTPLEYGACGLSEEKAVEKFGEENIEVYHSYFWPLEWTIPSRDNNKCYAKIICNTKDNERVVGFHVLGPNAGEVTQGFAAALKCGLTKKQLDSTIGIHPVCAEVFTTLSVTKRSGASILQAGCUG

[2] = target: T2, Thioredoxin reductase 1, cytoplasmic (Homo sapiens, UniProt Q16881); assay: Binding affinity to TrxR1 (unknown origin) assessed as dissociation constant by SPR analysis
T2 sequence (Q16881 whole entry): T1 sequence (whole entry)

[3] = target: T1, Thioredoxin reductase 1, cytoplasmic (Homo sapiens); assay: Binding affinity to TrxR1 (unknown origin) at Sec498 residue by pull-down analysis
[4] = target: T1, Thioredoxin reductase 1, cytoplasmic (Homo sapiens); assay: Binding affinity to TrxR1 in human A549 cells assessed as thermal stabilization by measuring reduction in thermal denaturation at 200 uM incubated for 90 mins by CETSA analysis; assay type: cell-based
[5] = target: T1, Thioredoxin reductase 1, cytoplasmic (Homo sapiens); assay: Binding affinity to TrxR1 (unknown origin) at Cys475 residue
A549 [6] = assay: Cytotoxicity against human A549 cells assessed as cell viability incubated for 48 hrs by MTT assay; assay type: functional, cell-based; settings: A549, 48 h
NCI-H1299 = assay: Cytotoxicity against human NCI-H1299 cells assessed as cell viability incubated for 48 hrs by MTT assay; assay type: functional, cell-based; settings: NCI-H1299, 48 h
NCI-H460 [7] = assay: Cytotoxicity against human NCI-H460 cells assessed as cell viability incubated for 48 hrs by MTT assay; assay type: functional, cell-based; settings: NCI-H460, 48 h
[8] = Cytotoxicity against human BEAS-2B cells assessed as cell viability incubated for 48 hrs by MTT assay; assay type: toxicity, cell-based
NCI-H460 [9] = assay: Induction of ROS generation in human NCI-H460 cells by DCFH-DA probe based flow cytometry analysis; assay type: functional, cell-based
A549 [10] = assay: Induction of ROS generation in human A549 cells by DCFH-DA probe based flow cytometry analysis; assay type: functional, cell-based

Structure (SMILES): C=C1C(=O)O[C@H]2CC3=C[C@H](C/C(C)=C/[C@@H](OC(=O)NCCC)[C@H]12)OC3=O
- inhibition [1]: Active
- Kd [2]: 7.89 µM
- Activity [3]: Active
- Activity [4]: Active
- Activity [5]: Active

Structure (SMILES): C/C1=C\[C@@H](OC(=O)OC2CC2)[C@H]2[C@H](CC3=C[C@H](C1)OC3=O)OC(=O)[C@@H]2CSc1ccc(F)cc1
- IC50 (A549 [6]): 3.91 µM
- IC50 (NCI-H1299): 3.04 µM

Structure (SMILES): C/C1=C\[C@@H](OC(=O)SCC(C)C)[C@H]2[C@H](CC3=C[C@H](C1)OC3=O)OC(=O)[C@@H]2CSc1ccc(F)cc1
- IC50 (A549 [6]): 2.57 µM
- IC50 (NCI-H1299): 5.37 µM

Structure (SMILES): C/C1=C\[C@@H](OC(=O)C2CC2)[C@H]2[C@H](CC3=C[C@H](C1)OC3=O)OC(=O)[C@@H]2CSc1ccc(Br)cc1
- IC50 (NCI-H460 [7]): > 25 µM
- IC50 (A549 [6]): 4.6 µM
- IC50 at 48 h [8]: > 25 µM

Structure (SMILES): C/C1=C\[C@@H](OC(=O)C2CC2)[C@H]2[C@H](CC3=C[C@H](C1)OC3=O)OC(=O)[C@@H]2CSc1ccc(C(F)(F)F)cc1
- IC50 (NCI-H460 [7]): > 25 µM
- IC50 (A549 [6]): 3.86 µM
- IC50 at 48 h [8]: > 25 µM

Structure (SMILES): CCCCCSC(=O)O[C@@H]1/C=C(\C)C[C@H]2C=C(C[C@@H]3OC(=O)[C@H](CSC(=S)N(C)C)[C@H]31)C(=O)O2
- IC50 (A549 [6]): 1.06 µM
- IC50 (NCI-H1299): 2.64 µM

Structure (SMILES): C/C1=C\[C@@H](OC(=O)OCc2ccc(F)cc2)[C@H]2[C@H](CC3=C[C@H](C1)OC3=O)OC(=O)[C@@H]2CSC(=S)N(C)C
- IC50 (A549 [6]): 0.47 µM
- IC50 (NCI-H1299): 2.93 µM

Structure (SMILES): C/C1=C\[C@@H](OC(=O)NCc2ccc(F)cc2)[C@H]2[C@H](CC3=C[C@H](C1)OC3=O)OC(=O)[C@@H]2CSc1ccc(F)cc1
- IC50 (A549 [6]): 5.05 µM
- IC50 (NCI-H1299): 5.37 µM

Structure (SMILES): C/C1=C\[C@@H](OC(=O)OCc2cccnc2)[C@H]2[C@H](CC3=C[C@H](C1)OC3=O)OC(=O)[C@@H]2CSc1ccc(F)cc1
- IC50 (A549 [6]): 1.56 µM
- IC50 (NCI-H1299): 11.5 µM

Structure (SMILES): C=C1C(=O)O[C@H]2CC3=C[C@H](C/C(C)=C/[C@@H](O)[C@H]12)OC3=O
- Kd [2]: 42.7 µM

Structure (SMILES): C/C1=C\[C@@H](OC(=O)C2CC2)[C@H]2[C@H](CC3=C[C@H](C1)OC3=O)OC(=O)[C@@H]2CSC(=S)N(C)C
- IC50 (NCI-H460 [7]): 7.75 µM
- IC50 (A549 [6]): 0.57 µM
- IC50 (NCI-H1299): 2.18 µM

Structure (SMILES): C/C1=C\[C@@H](OC(=O)c2ccccc2)[C@H]2[C@H](CC3=C[C@H](C1)OC3=O)OC(=O)[C@@H]2CSc1ccc(Cl)cc1
- IC50 (NCI-H460 [7]): 20.6 µM
- IC50 (A549 [6]): 4.14 µM

Structure (SMILES): C/C1=C\[C@@H](OC(=O)/C=C/c2ccccc2)[C@H]2[C@H](CC3=C[C@H](C1)OC3=O)OC(=O)[C@@H]2CSCCCCCSC[C@H]1C(=O)O[C@H]2CC3=C[C@H](C/C(C)=C/[C@@H](OC(=O)/C=C/c4ccccc4)[C@@H]21)OC3=O
- IC50 (NCI-H460 [7]): > 25 µM
- IC50 (A549 [6]): > 25 µM

Structure (SMILES): C/C1=C\[C@@H](OC(=O)/C=C/c2ccccc2)[C@H]2[C@H](CC3=C[C@H](C1)OC3=O)OC(=O)[C@@H]2CSCCCCCCCCSC[C@H]1C(=O)O[C@H]2CC3=C[C@H](C/C(C)=C/[C@@H](OC(=O)/C=C/c4ccccc4)[C@@H]21)OC3=O
- IC50 (NCI-H460 [7]): > 25 µM
- IC50 (A549 [6]): > 25 µM

Structure (SMILES): C/C1=C\[C@@H](OC(=O)C2CC2)[C@H]2[C@H](CC3=C[C@H](C1)OC3=O)OC(=O)[C@@H]2CSc1ccc(Cl)cc1
- IC50 (NCI-H460 [7]): > 25 µM
- IC50 (A549 [6]): 6.03 µM

Structure (SMILES): C/C1=C\[C@@H](OC(=O)c2ccccc2)[C@H]2[C@H](CC3=C[C@H](C1)OC3=O)OC(=O)[C@@H]2CSCCCCCCCCSC[C@H]1C(=O)O[C@H]2CC3=C[C@H](C/C(C)=C/[C@@H](OC(=O)c4ccccc4)[C@@H]21)OC3=O
- IC50 (NCI-H460 [7]): > 25 µM
- IC50 (A549 [6]): > 25 µM

Structure (SMILES): C/C1=C\[C@@H](O)[C@H]2[C@H](CC3=C[C@H](C1)OC3=O)OC(=O)[C@@H]2CSCCCCCCCCSC[C@H]1C(=O)O[C@H]2CC3=C[C@H](C/C(C)=C/[C@@H](O)[C@@H]21)OC3=O
- IC50 (NCI-H460 [7]): > 25 µM
- IC50 (A549 [6]): > 25 µM

Structure (SMILES): C/C1=C\[C@@H](O)[C@H]2[C@H](CC3=C[C@H](C1)OC3=O)OC(=O)[C@@H]2CSCCOCCOCCSC[C@H]1C(=O)O[C@H]2CC3=C[C@H](C/C(C)=C/[C@@H](O)[C@@H]21)OC3=O
- IC50 (NCI-H460 [7]): > 25 µM
- IC50 (A549 [6]): > 25 µM

Structure (SMILES): C/C1=C\[C@@H](OC(=O)C2CC2)[C@H]2[C@H](CC3=C[C@H](C1)OC3=O)OC(=O)[C@@H]2CSC(=S)NC(C)C
- IC50 (NCI-H460 [7]): > 25 µM
- IC50 (A549 [6]): 1.94 µM

Structure (SMILES): C/C1=C\[C@@H](O)[C@H]2[C@H](CC3=C[C@H](C1)OC3=O)OC(=O)[C@@H]2CSCC(C)C
- IC50 (NCI-H460 [7]): > 25 µM
- IC50 (A549 [6]): > 25 µM

Structure (SMILES): C/C1=C\[C@@H](OC(=O)C2CC2)[C@H]2[C@H](CC3=C[C@H](C1)OC3=O)OC(=O)[C@@H]2CSC1CCCCC1
- IC50 (NCI-H460 [7]): > 25 µM
- IC50 (A549 [6]): > 25 µM

Structure (SMILES): C/C1=C\[C@@H](O)[C@H]2[C@H](CC3=C[C@H](C1)OC3=O)OC(=O)[C@@H]2CSc1ccc(SC[C@H]2C(=O)O[C@H]3CC4=C[C@H](C/C(C)=C/[C@@H](O)[C@@H]32)OC4=O)cc1
- IC50 (NCI-H460 [7]): > 25 µM
- IC50 (A549 [6]): > 25 µM

Structure (SMILES): C/C1=C\[C@@H](O)[C@H]2[C@H](CC3=C[C@H](C1)OC3=O)OC(=O)[C@@H]2CSCCCCCSC[C@H]1C(=O)O[C@H]2CC3=C[C@H](C/C(C)=C/[C@@H](O)[C@@H]21)OC3=O
- IC50 (NCI-H460 [7]): > 25 µM
- IC50 (A549 [6]): > 25 µM

Structure (SMILES): C/C1=C\[C@@H](OC(=O)C2CC2)[C@H]2[C@H](CC3=C[C@H](C1)OC3=O)OC(=O)[C@@H]2CSc1cccc(F)c1
- IC50 (NCI-H460 [7]): 13.2 µM
- IC50 (A549 [6]): 5.4 µM

Structure (SMILES): COc1ccc(SC[C@H]2C(=O)O[C@H]3CC4=C[C@H](C/C(C)=C/[C@@H](OC(=O)C5CC5)[C@@H]32)OC4=O)cc1
- IC50 (NCI-H460 [7]): > 25 µM
- IC50 (A549 [6]): 6.81 µM

Structure (SMILES): C/C1=C\[C@@H](OC(=O)C2CC2)[C@H]2[C@H](CC3=C[C@H](C1)OC3=O)OC(=O)[C@@H]2CSCCCCCCCCCCSC[C@H]1C(=O)O[C@H]2CC3=C[C@H](C/C(C)=C/[C@@H](OC(=O)C4CC4)[C@@H]21)OC3=O
- IC50 (NCI-H460 [7]): > 25 µM
- IC50 (A549 [6]): > 25 µM

Structure (SMILES): C/C1=C\[C@@H](OC(=O)/C=C/c2ccccc2)[C@H]2[C@H](CC3=C[C@H](C1)OC3=O)OC(=O)[C@@H]2CSCCOCCOCCSC[C@H]1C(=O)O[C@H]2CC3=C[C@H](C/C(C)=C/[C@@H](OC(=O)/C=C/c4ccccc4)[C@@H]21)OC3=O
- IC50 (NCI-H460 [7]): > 25 µM
- IC50 (A549 [6]): > 25 µM

Structure (SMILES): C/C1=C\[C@@H](OC(=O)C2CC2)[C@H]2[C@H](CC3=C[C@H](C1)OC3=O)OC(=O)[C@@H]2CSCCCCCSC[C@H]1C(=O)O[C@H]2CC3=C[C@H](C/C(C)=C/[C@@H](OC(=O)C4CC4)[C@@H]21)OC3=O
- IC50 (NCI-H460 [7]): > 25 µM
- IC50 (A549 [6]): > 25 µM

Structure (SMILES): CCCCCSC[C@H]1C(=O)O[C@H]2CC3=C[C@H](C/C(C)=C/[C@@H](OC(=O)/C=C/c4ccccc4)[C@@H]21)OC3=O
- IC50 (NCI-H460 [7]): > 25 µM
- IC50 (A549 [6]): > 25 µM

Structure (SMILES): C/C1=C\[C@@H](OC(=O)c2ccccc2)[C@H]2[C@H](CC3=C[C@H](C1)OC3=O)OC(=O)[C@@H]2CSCCOCCOCCSC[C@H]1C(=O)O[C@H]2CC3=C[C@H](C/C(C)=C/[C@@H](OC(=O)c4ccccc4)[C@@H]21)OC3=O
- IC50 (NCI-H460 [7]): > 25 µM
- IC50 (A549 [6]): > 25 µM

Structure (SMILES): C/C1=C\[C@@H](OC(=O)C2CC2)[C@H]2[C@H](CC3=C[C@H](C1)OC3=O)OC(=O)[C@@H]2CSc1ccc(F)cc1
- IC50 (NCI-H460 [7]): > 25 µM
- IC50 (A549 [6]): 4.41 µM
- IC50 at 48 h [8]: > 25 µM
- Activity (NCI-H460 [9]): Active
- Activity (A549 [10]): Active
